Experimental data reported in patent US7794795B2, “Hybrid anti-fouling coating compositions and methods for preventing the fouling of surfaces subjected to a marine environment” (The Research Foundation of State University of New York, priority 2003, dated 2010).

Experiments:
[1] = Thiol peroxidase activity: oxidation of PhSH with H2O2, stopped-flow; settings: for k0, initial linear increase in absorbance: PhSH 1 × 10^−3 M, H2O2 3.75 × 10^−3 M, catalyst 1 × 10^−5 M, MeOH (5% CH2Cl2; 46% for 22), 276.8 K, 305 nm; for v0 (rel): relative to 23a = 1; for v0, initial rate of oxidation of PhSH: same conditions, k0 corrected for the uncatalyzed reaction
Method: (§1) All stopped-flow experiments were performed on a SX18 Stopped-Flow Spectrometer (Applied Photophysics, Leatherhead, UK). The sample-handling unit was fitted with two drive syringes that are mounted inside a thermostatted-bath compartment, which allowed for variable temperature experimentation. The optical detection cell was set up in the 2-mm pathlength. First- and second-order curve fitting and rate constants used a Marquardt algorithm (Marquardt, J. Soc. Indust Appl. Mathematics, 11:431 et al. (1963), which is hereby incorporated by reference in its entirety) based on the routine Curfit (Bevington, Data Reduction and Error Analysis for the Physical Sciences, McGraw-Hill, New York (1969), which is hereby incorporated by reference in its entirety).
Stock solutions of 2.0×10^−3 M of catalyst in CH2Cl2 and 5.0×10^−2 M PhSH in CH2Cl2 were prepared. These were diluted with MeOH to give a 5% CH2Cl21MeOH solution of 2.0×10^−5 M telluride and 2.0×10^−3 PhSH. A stock solution of 7.50×10^−3 M H2O2 in MeOH was prepared. These two solutions were mixed in the stopped-flow spectrometer to give concentrations of 1.0×10^−5 M telluride, 1.0×10^−3 M PhSH, and 3.75×10^−3 M H2O2 and the increase in absorbance at 305 nm was measured. The concentration of H2O2 in the stock solution was determined from the absorbance at 240 nm (E=43.6 cm^−1 M^−1) (Riley et al., Endocrinology, 128:1749 et al. (1991); Zhao et al., Biochemistry, 40:10832 et al. (2001), which are hereby incorporated by reference in their entirety). The values in Table 1 are the average of 7-10 independent runs (± standard deviation).
In earlier work with dendrimeric organotelluride catalysts for the oxidation of halide salts with H2O2 (Francavilla et al., J. Am. Chem. Soc., 123:57 et al. (2001), which is hereby incorporated by reference in its entirety), a two-phase system of CH2Cl2 and pH-6 buffer was employed, which kept the catalysts and substrate in solution. In order to evaluate the catalysts in a homogeneous system, the method of Tomoda et al. (Iwaoka et al., J. Am. Chem. Soc., 116:2557 et al. (1994); Mugesh et al., J. Am. Chem. Soc., 123:839 et al. (2001), which are hereby incorporated by reference in their entirety) was employed to measure thiol peroxidase activity. In this procedure, thiophenol (PhSH) is oxidized to diphenyl disulfide (PhSSPh) using H2O2 as the oxidant. Catalytic activity was determined by the initial rates for the oxidation of PhSH (1.0×10^−3 M) with H2O2 (3.75×10^−3 M) in MeOH in the presence of a catalyst at a standard concentration of 1.0×10^−5 M.
A 5% CH2Cl2/MeOH solution of catalyst (9, 15, 20, 23, or 24 at 2.0×10^−5M) and PhSH (2.0×10^−3 M) was mixed with an equal volume of a 5% CH2Cl21MeOH solution of H2O2 (7.5×10^−3 M) in a stopped-flow spectrophotometer at 276.8±0.4 K to give final concentrations of […] catalyst, 1.0×10^−3 M PhSH, and 3.75×10^−3M H2O2. The rate of appearance of PhSSPh, with a molar extinction coefficient, ε, of […] at 305 nm (Mugesh et al., J. Am. Chem. Soc., 123:839 et al. (2001), which is hereby incorporated by reference in its entirety), was monitored at 305 nm. The 5% CH2Cl2 was added to keep the tellurides/oxidized tellurides in solution during the course of the reaction. For hexatellurides 22, the percentage of CH2Cl2 was increased to 46% (by volume) in both solutions to keep the dendrimers in solution during the time-course of the analysis.
A slow, uncatalyzed background reaction was observed upon mixing the two solutions in the stopped-flow spectrometer without added catalyst. Values of k0 were corrected for the uncatalyzed background reaction and converted to initial velocities, ν0, in units of […] min^−1 (Table 1). Values of ν0 as a function of the number of catalytic groups is plotted in FIG. 20.

[2] = Oxidation of monotellurides with H2O2, stopped-flow, pseudo first-order; settings: for observed rate constant for oxidation: 1.03×10^−3 M telluride, 1.03×10^−2 M H2O2, 276.8 K, 5% CH2Cl2/MeOH; for second-order rate constant for oxidation: same conditions
Method: as §1
Stock solutions of 2.06×10^−3M telluride and 2.06×10^−2 M H2O2 in 5% CH2Cl2/MeOH were prepared. These two solutions were mixed in the stopped-flow spectrometer to give concentrations of 1.03×10^−3M telluride and 1.03×10^−2 M H2O2 and the increase in absorbance at 325 nm for 23a, 350 nm for 23b, and 352 nm for 24 was measured as a function of time for 7-10 independent runs (1 standard deviation).
The rates of oxidation of monotellurides 23 and 24 were followed in the stopped-flow spectrometer under pseudo first-order conditions. Final concentrations of 1.03×10^−3 M telluride and 1.03×10^−2 M H2O2 at 276.8±0.4 K gave observed rate constants for oxidation of (1.10±0.01)×10^−1 s^−1 for 23a, (3.62±0.02)×10^−1 s^−1 for 23b, and (4.5±0.4)×10^−1 for 24, which correspond to second-order rate constants of 10.7±0.1 M^−1 s^−1 for 23a, 35.1±0.2 M^−1 s^−1 for 23b, and 44±4 M^−1 s^−1 for 24.

SMILES | k0, initial linear increase in absorbance [1] | v0 (rel) [1] | v0, initial rate of oxidation of PhSH [1] | observed rate constant for oxidation [2] | second-order rate constant for oxidation [2]
CN(C)c1ccc([Te]CCCOc2cc(CO)cc(OCCC[Te]c3ccc(N(C)C)cc3)c2)cc1 [9b, 3,5-Bis[3-(4-dimethylaminophenyltelluro)propyloxy]benzyl Alcohol] | (1.69 ± 0.05) × 10^−4 ΔA s^−1 | 3.3 | (4.0 ± 0.1) × 10^1 μM min^−1 |  | 
CN(C)c1ccc([Te]CCCOc2cc(CO)cc(OCCC[Te]c3ccc(N(C)C)cc3)c2OCCC[Te]c2ccc(N(C)C)cc2)cc1 [15b, 3,4,5-Tris[3-(4-dimethylaminophenyltelluro)propyloxy]benzyl Alcohol] | (3.15 ± 0.03) × 10^−4 ΔA s^−1 | 6.3 | (7.49 ± 0.07) × 10^1 μM min^−1 |  | 
CCCCCC[Te]CCCOc1cc(COc2cc(CO)cc(OCc3cc(OCCC[Te]CCCCCC)cc(OCCC[Te]CCCCCC)c3)c2)cc(OCCC[Te]CCCCCC)c1 [20c, 3,5-Bis(3,5-bis[3-(n-hexyltelluro)propyloxy]benzyloxy)benzyl Alcohol] | (5.47 ± 0.07) × 10^−4 ΔA s^−1 | 11 | (1.31 ± 0.01) × 10^2 μM min^−1 |  | 
CN(C)c1ccc(CCCOc2cc(COc3ccc(C(C)(c4ccc(OCc5cc(OCCCc6ccc(N(C)C)cc6)cc(OCCCc6ccc(N(C)C)cc6)c5)cc4)c4ccc(OCc5cc(OCCCc6ccc(N(C)C)cc6)cc(OCCCc6ccc(N(C)C)cc6)c5)cc4)cc3)cc(OCCCc3ccc(N(C)C)cc3)c2)cc1 [22b, 1,1,1-Tris[4-(3,5-bis[3-(4-N,N-dimethylaminophenyl)propyloxy]benzyloxy)phenyl]ethane] | (5.6 ± 0.1) × 10^−4 ΔA s^−1 | 11 | (1.34 ± 0.02) × 10^2 μM min^−1 |  | 
CCCCCC[Te]CCCOc1cc(COc2ccc(C(C)(c3ccc(OCc4cc(OCCC[Te]CCCCCC)cc(OCCC[Te]CCCCCC)c4)cc3)c3ccc(OCc4cc(OCCC[Te]CCCCCC)cc(OCCC[Te]CCCCCC)c4)cc3)cc2)cc(OCCC[Te]CCCCCC)c1 [22c, 1,1,1-Tris[4-(3,5-bis[3-(n-hexyltelluro)propyloxy]benzyloxy)phenyl]-ethane] | (1.30 ± 0.01) × 10^−3 ΔA s^−1 | 26 |  |  | 
OCc1cc(OCCC[Te]c2ccccc2)cc(OCCC[Te]c2ccccc2)c1 [compound 9a, 3,5-Bis[3-(phenyltelluro)propyloxy]benzyl Alcohol] | (8.8 ± 0.5) × 10^−5 ΔA s^−1 | 1.7 | (2.0 ± 0.1) × 10^1 μM min^−1 |  | 
CCCCCC[Te]CCCOc1cc(CO)cc(OCCC[Te]CCCCCC)c1 [compound 9c, 3,5-Bis[3-(n-hexyltelluro)propyloxy]benzyl Alcohol] | (2.90 ± 0.06) × 10^−4- ΔA s^−1 | 5.8 | (6.9 ± 0.1) × 10^1 μM min^−1 |  | 
OCc1cc(OCCC[Te]c2ccccc2)c(OCCC[Te]c2ccccc2)c(OCCC[Te]c2ccccc2)c1 [compound 15a, 3,4,5-Tris[3-(phenyltelluro)propyloxy]benzyl Alcohol] | (1.14 ± 0.02) × 10^−4 ΔA s^−1 | 2.2 | (2.66 ± 0.05) × 10^1 μM min^−1 |  | 
CCCCCC[Te]CCCOc1cc(CO)cc(OCCC[Te]CCCCCC)c1OCCC[Te]CCCCCC [compound 15c, 3,4,5-Tris[3-(n-hexyltelluro)propyloxy]benzyl Alcohol] | (4.00 ± 0.05) × 10^−4 ΔA s^−1 | 7.9 | (9.5 ± 0.1) × 10^1 μM min^−1 |  | 
OCc1cc(OCc2cc(OCCC[Te]c3ccccc3)cc(OCCC[Te]c3ccccc3)c2)cc(OCc2cc(OCCC[Te]c3ccccc3)cc(OCCC[Te]c3ccccc3)c2)c1 [compound 20a, 3,5-Bis(3,5-bis[3-(phenyltelluro)propyloxy]benzyloxy)benzyl Alcohol] | (1.81 ± 0.05) × 10^−4 ΔA s^−1 | 3.6 | (4.3 ± 0.1) × 10^1 μM min^−1 |  | 
CN(C)c1ccc([Te]CCCOc2cc(COc3cc(CO)cc(OCc4cc(OCCC[Te]c5ccc(N(C)C)cc5)cc(OCCC[Te]c5ccc(N(C)C)cc5)c4)c3)cc(OCCC[Te]c3ccc(N(C)C)cc3)c2)cc1 [compound 20b, 3,5-Bis(3,5-bis[3-(4-dimethylaminophenyltelluro)propyloxy]benzyloxy)benzyl Alcohol] | (3.13 ± 0.05) × 10^−4 ΔA s^−1 | 6.3 | (7.4 ± 0.1) × 10^1 μM min^−1 |  | 
c1ccc(OCCC[Te]c2ccccc2)cc1 [compound 23a, 1-Phenoxy-3-(phenyltelluro)propane] | (5.3 ± 0.4) × 10^−5 ΔA s^−1 | 1 |  | (1.10±0.01)×10^−1 s^−1 | 10.7 ± 0.1 M⁻¹ s⁻¹
CN(C)c1ccc([Te]CCCOc2ccccc2)cc1 [compound 23b, 1-phenoxy-3-[4-(N,N-dimethylamino)phenyltelluro]propane] | (1.06 ± 0.05) × 10^−4 ΔA s^−1 | 2.1 | (2.5 ± 0.1) × 10^1 μM min^−1 | (3.62±0.02)×10^−1 s^−1 | 35.1 ± 0.2 M⁻¹ s⁻¹
CCCCCC[Te]CCCCCC [compound 24, Di-n-hexyltelluride, reference compound] | (1.53 ± 0.09) × 10^−4 ΔA s^−1 | 3.0 | (3.6 ± 0.2) × 10^1 μM min^−1 | (4.5±0.4)×10^−1 s^−1 | 44 ± 4 M⁻¹ s⁻¹
